Data reported in paper PMC10804372, “Degradation by Design: New Cyclin K Degraders from Old CDK Inhibitors” (ACS Chemical Biology, 2024).

Key:
Cyclin K [1] = experiment: Cyclin K levels by Western blot after single-concentration treatment; format: cell-based, human; conditions: HEK293T cells, 1 μM for 2 h; for cyclin K degradation: Western blot; for Remaining Cyclin K (%): quantified from Western blots, mean ± SD, three independent experiments
Protocol: (§1) HEK293T human […] kidney cells were cultured in DMEM (Gibco/Life Technologies), containing 25 mM D-glucose, 4 mM L-glutamine, and 1 mM sodium pyruvate, and supplemented with 10% (v/v) FBS and 1% nonessential amino acids (Gibco/Life Technologies). Cells were incubated at 37 °C in a humidified atmosphere with 5% CO2.
(§2) Cells were washed with PBS and lysed (20 mM HEPES pH 7.5, 10% glycerol, 0.4 M KCl, 0.4% Triton X-100, 15 mM EDTA, and 1× protease and phosphatase inhibitors). The insoluble fraction was removed by centrifugation. Protein quantification was performed using a Bradford assay and compared to a BSA calibration curve. Equal amounts of lysates were run on SDS–PAGE 4–12% Bis–Tris Protein Gels (NuPAGE, Thermo Fisher Scientific) and then transferred onto Immobilon-P PVDF Membrane (Millipore, IPVH00010) using a Mini Trans-Blot Cell (Bio-Rad, 1703930). The membranes were blocked with 5% bovine albumin serum (BSA) in Tris-buffered saline with Tween 20 (TBS-T) and incubated with primary antibodies overnight at 4 °C. The membranes were washed three times with TBS-T and incubated with HRP-conjugated secondary antibody (BioRad) for 2 h. Membranes were washed again three times with TBS-T before being developed using Pierce ECL Western Blotting Substrate (Thermo, 32106) and visualized using LI-COR. Antibodies were purchased from Cell Signaling Technology: anti-GAPDH (D4C6R) and anti-DDB1 (D4C8) or Bethyl Laboratories: anti-Cyclin K (A301-939A). The following HRP-linked secondary antibodies were used by dilution in 5% BSA/TBS-T: antirabbit IgG (BioRad, 5213–2504) and antimouse IgG (BioRad, 103005).
(§3) Unedited blots containing the marker lane are available on request. Western blots were quantified using ImageJ. Cyclin K levels were normalized using GAPDH as a loading control. DC50 values were calculated from concentration–response curves using nonlinear regression fit to a 4-parameter curve by GraphPad Prism.

Cyclin K [2] = experiment: Cyclin K degradation concentration-response (DC50, DMax) by Western blot; format: cell-based, human; conditions: for DMax (%) / DC50: HEK293T, Western blot quantification, 3 biological repeats; for DC50: read-out: CycK DC50; for fold decrease in degradation ability versus pyridine counterpart: furan analogues vs 1 (CR8), 36, 40
Protocol: With the aim of comparing the degradation ability of the new analogues, we derived DC50 values by using Western blotting (Table 5). […] This approach has been previously used to improve the potency of BCL6 degraders.[33] We therefore also measured CDK12 affinity using the KINOMEscan binding assay (Table 5).[34]
as §1, §2, §3

CDK12 = biological target: T1, CDK12 (Homo sapiens, UniProt Q9NYV4); experiment: KINOMEscan binding assay (Eurofins DiscoverX); conditions: for Kd: KINOMEscan
T1 construct: purchased Eurofins DiscoverX (KINOMEscan service)
T1 sequence (Q9NYV4 whole entry): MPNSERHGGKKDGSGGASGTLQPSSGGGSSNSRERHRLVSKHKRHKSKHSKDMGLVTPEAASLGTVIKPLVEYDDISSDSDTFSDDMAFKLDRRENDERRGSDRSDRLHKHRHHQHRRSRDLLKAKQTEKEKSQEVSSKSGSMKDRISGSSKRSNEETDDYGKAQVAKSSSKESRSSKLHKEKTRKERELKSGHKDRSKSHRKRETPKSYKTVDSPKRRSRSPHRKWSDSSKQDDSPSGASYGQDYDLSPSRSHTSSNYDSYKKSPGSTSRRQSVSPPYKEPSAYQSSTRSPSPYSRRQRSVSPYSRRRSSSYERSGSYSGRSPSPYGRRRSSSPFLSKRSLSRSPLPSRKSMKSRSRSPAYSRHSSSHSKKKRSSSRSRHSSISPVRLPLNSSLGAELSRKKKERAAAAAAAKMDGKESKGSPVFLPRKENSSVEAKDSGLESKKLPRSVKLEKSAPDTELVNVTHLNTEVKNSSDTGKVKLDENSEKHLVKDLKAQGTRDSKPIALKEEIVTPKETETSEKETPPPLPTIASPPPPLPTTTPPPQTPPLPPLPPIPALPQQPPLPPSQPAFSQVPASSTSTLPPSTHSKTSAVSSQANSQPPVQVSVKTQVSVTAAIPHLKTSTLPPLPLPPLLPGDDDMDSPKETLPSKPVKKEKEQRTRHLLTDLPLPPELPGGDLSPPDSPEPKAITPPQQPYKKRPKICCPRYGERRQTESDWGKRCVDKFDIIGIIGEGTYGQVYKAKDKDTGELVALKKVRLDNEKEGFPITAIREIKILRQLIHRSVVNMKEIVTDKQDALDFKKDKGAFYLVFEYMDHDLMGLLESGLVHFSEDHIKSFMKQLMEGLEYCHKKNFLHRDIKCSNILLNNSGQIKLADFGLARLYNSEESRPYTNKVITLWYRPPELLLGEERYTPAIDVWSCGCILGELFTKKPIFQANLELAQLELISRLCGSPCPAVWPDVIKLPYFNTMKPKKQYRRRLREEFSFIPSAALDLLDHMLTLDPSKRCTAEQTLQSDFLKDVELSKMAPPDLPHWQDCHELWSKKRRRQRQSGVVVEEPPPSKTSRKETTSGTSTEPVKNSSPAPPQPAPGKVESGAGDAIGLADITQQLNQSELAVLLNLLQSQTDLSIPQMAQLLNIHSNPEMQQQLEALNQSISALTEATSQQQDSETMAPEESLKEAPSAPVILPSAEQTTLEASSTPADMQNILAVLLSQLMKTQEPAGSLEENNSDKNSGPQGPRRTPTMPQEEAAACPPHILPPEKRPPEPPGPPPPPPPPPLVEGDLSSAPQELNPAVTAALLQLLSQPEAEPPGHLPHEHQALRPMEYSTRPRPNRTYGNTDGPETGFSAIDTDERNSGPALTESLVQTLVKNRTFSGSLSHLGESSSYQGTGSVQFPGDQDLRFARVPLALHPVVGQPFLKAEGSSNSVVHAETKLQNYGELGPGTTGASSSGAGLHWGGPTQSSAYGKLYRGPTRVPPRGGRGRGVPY

`CC[C@H](CO)Nc1nc(NCc2ccc(-c3ccccc3)cc2)c2ncn(C(C)C)c2n1` [compound 3] was tested, and the “cyclin K degradation” value (Cyclin K [1]) was “comparable to that of CR8” and the “Remaining Cyclin K (%)” value (Cyclin K [1]) was 8 ± 7%.
In the case of `CC[C@H](CO)Nc1nc(NCc2ccc(-c3cccnc3)cc2)c2ncn(C(C)C)c2n1` [compound 4], the “cyclin K degradation” value (Cyclin K [1]) is reported as “comparable to that of CR8” and the “Remaining Cyclin K (%)” value (Cyclin K [1]) is reported as 6 ± 4%.
In the case of `CC[C@H](CO)Nc1nc(NCc2ccc(-c3ccncc3)cc2)c2ncn(C(C)C)c2n1` [compound 5], the “cyclin K degradation” value (Cyclin K [1]) is reported as “comparable to that of CR8” and the “Remaining Cyclin K (%)” value (Cyclin K [1]) is reported as 9 ± 6%.
With `CC[C@H](CO)Nc1nc(NCc2ccc(-c3ccc(F)cn3)cc2)c2ncn(C(C)C)c2n1` [compound 6] the “cyclin K degradation” value (Cyclin K [1]) was “reduction in degradation activity” and the “Remaining Cyclin K (%)” value (Cyclin K [1]) was 42 ± 8%.
In the case of `CC[C@H](CO)Nc1nc(NCc2ccc(-c3ccc(C)cn3)cc2)c2ncn(C(C)C)c2n1` [compound 7], the “cyclin K degradation” value (Cyclin K [1]) is reported as “abrogated degradation further” and the “Remaining Cyclin K (%)” value (Cyclin K [1]) is reported as 93 ± 6%.
`CC[C@H](CO)Nc1nc(NCc2ccc(-c3ccc(CC(C)C)cc3)cc2)c2ncn(C(C)C)c2n1` [compound 9] was tested, and the “Remaining Cyclin K (%)” value (Cyclin K [1]) was 79 ± 22%.
For `CC[C@H](CO)Nc1nc(NCc2ccc(-c3ccc(C(=O)NC45CC6CC(CC(C6)C4)C5)cn3)cc2)c2ncn(C(C)C)c2n1` [compound 10], the “Remaining Cyclin K (%)” value (Cyclin K [1]) was 94 ± 8%.
With `CC[C@H](CO)Nc1nc(NCc2ccc(-c3cccc(F)n3)cc2)c2ncn(C(C)C)c2n1` [compound 11] the “cyclin K degradation” value (Cyclin K [1]) was “complete degradation” and the “Remaining Cyclin K (%)” value (Cyclin K [1]) was 2 ± 3%.
With `CC[C@H](CO)Nc1nc(NCc2ccc(-c3cccc(C)n3)cc2)c2ncn(C(C)C)c2n1` [compound 12] the “cyclin K degradation” value (Cyclin K [1]) was “complete degradation”, the “Remaining Cyclin K (%)” value (Cyclin K [1]) was 4 ± 4% and the “DMax (%)” value (Cyclin K [2]) was >95%. For the same molecule, the DC50 (Cyclin K [2]) was 106 nM and the Kd (CDK12) was 220 nM.
In the case of `CC[C@H](CO)Nc1nc(NCc2ccc(-c3cc(F)ccn3)cc2)c2ncn(C(C)C)c2n1` [compound 13], the “Remaining Cyclin K (%)” value (Cyclin K [1]) is reported as 3 ± 2%.
For `CC[C@H](CO)Nc1nc(NCc2ccc(-c3cc(C)ccn3)cc2)c2ncn(C(C)C)c2n1` [compound 14], the “Remaining Cyclin K (%)” value (Cyclin K [1]) was 1 ± 0%.
`CCc1ccnc(-c2ccc(CNc3nc(N[C@H](CC)CO)nc4c3ncn4C(C)C)cc2)c1` [compound 16] was tested, and the “cyclin K degradation” value (Cyclin K [1]) was “able to successfully induce degradation” and the “Remaining Cyclin K (%)” value (Cyclin K [1]) was 6 ± 4%.
In the case of `CC[C@H](CO)Nc1nc(NCc2ccc(-c3cc(C#N)ccn3)cc2)c2ncn(C(C)C)c2n1` [compound 17], the “cyclin K degradation” value (Cyclin K [1]) is reported as “able to successfully induce degradation” and the “Remaining Cyclin K (%)” value (Cyclin K [1]) is reported as 2 ± 2%.
With `CC[C@H](CO)Nc1nc(NCc2ccc(-c3ncccc3F)cc2)c2ncn(C(C)C)c2n1` [compound 18] the “cyclin K degradation” value (Cyclin K [1]) was “able to induce degradation” and the “Remaining Cyclin K (%)” value (Cyclin K [1]) was 17 ± 13%.
`CC[C@H](CO)Nc1nc(NCc2ccc(-c3ncccc3C)cc2)c2ncn(C(C)C)c2n1` [compound 19] was tested, and the “cyclin K degradation” value (Cyclin K [1]) was “reduced degradation ability compared to CR8” and the “Remaining Cyclin K (%)” value (Cyclin K [1]) was 37 ± 16%.
In the case of `CC[C@H](CO)Nc1nc(NCc2ccc(C3=CCCCC3)cc2)c2ncn(C(C)C)c2n1` [compound 22], the “cyclin K degradation” value (Cyclin K [1]) is reported as “partial degradation” and the “Remaining Cyclin K (%)” value (Cyclin K [1]) is reported as 22 ± 5%.
For `CC[C@H](CO)Nc1nc(NCc2ccc(N3CCNCC3)cc2)c2ncn(C(C)C)c2n1` [compound 24], the “cyclin K degradation” value (Cyclin K [1]) was “significantly reduced degradation ability” and the “Remaining Cyclin K (%)” value (Cyclin K [1]) was 86 ± 20%.
`CC[C@H](CO)Nc1nc(NCc2ccc(C3=CCCC3)cc2)c2ncn(C(C)C)c2n1` [compound 26] was tested, and the “cyclin K degradation” value (Cyclin K [1]) was “complete cyclin K degradation” and the “Remaining Cyclin K (%)” value (Cyclin K [1]) was 5 ± 4%.
With `CC[C@H](CO)Nc1nc(NCc2ccc(C3CCCC3)cc2)c2ncn(C(C)C)c2n1` [compound 27] the “cyclin K degradation” value (Cyclin K [1]) was “only partial degradation” and the “Remaining Cyclin K (%)” value (Cyclin K [1]) was 31 ± 16%.
In the case of `CC[C@H](CO)Nc1nc(NCc2ccc(-c3ccoc3)cc2)c2ncn(C(C)C)c2n1` [compound 28], the “cyclin K degradation” value (Cyclin K [1]) is reported as “complete degradation” and the “Remaining Cyclin K (%)” value (Cyclin K [1]) is reported as 2 ± 2%.
For `CC[C@H](CO)Nc1nc(NCc2ccc(C)cc2)c2ncn(C(C)C)c2n1` [compound 32], the “cyclin K degradation” value (Cyclin K [1]) was “little to no degradation” and the “Remaining Cyclin K (%)” value (Cyclin K [1]) was 89 ± 8%.
In the case of `CC[C@H](CO)Nc1nc(NCc2ccc(Br)cc2)c2ncn(C(C)C)c2n1` [compound 33], the “cyclin K degradation” value (Cyclin K [1]) is reported as “little to no degradation” and the “Remaining Cyclin K (%)” value (Cyclin K [1]) is reported as 73 ± 29%.
`C=Cc1ccc(CNc2nc(N[C@H](CC)CO)nc3c2ncn3C(C)C)cc1` [compound 34] was tested, and the “cyclin K degradation” value (Cyclin K [1]) was “little to no degradation” and the “Remaining Cyclin K (%)” value (Cyclin K [1]) was 63 ± 22%.
`CCc1ccc(CNc2nc(N[C@H](CC)CO)nc3c2ncn3C(C)C)cc1` [compound 35] was tested, and the “cyclin K degradation” value (Cyclin K [1]) was “little to no degradation” and the “Remaining Cyclin K (%)” value (Cyclin K [1]) was 90 ± 14%.
For `OCCC1CCCCN1c1cc(NCc2ccc(-c3ccccn3)cc2)n2ncc(Br)c2n1` (centres unmarked) [compound 36], the “Remaining Cyclin K (%)” value (Cyclin K [1]) was 2 ± 1%, the “improvement in degradation as measured by DC50 versus compound 1” value (Cyclin K [2]; 36 vs 1) was “fivefold” and the “DMax (%)” value (Cyclin K [2]) was >95%. The DC50 (Cyclin K [2]) was 10 nM, the “fold better CDK12 affinity versus CR8/seliciclib-core analogue” value (CDK12; 36 vs 1, 37 vs 21) was 100 fold and the Kd (CDK12) was 4 nM.
In the case of `Cc1ccnc(-c2ccc(CNc3cc(N4CCCCC4CCO)nc4c(Br)cnn34)cc2)c1` (centres unmarked) [compound 38], the “Remaining Cyclin K (%)” value (Cyclin K [1]) is reported as 3 ± 4%.
For `OCCC1CCCCN1c1cc(NCc2ccc(-c3ccco3)cc2)n2ncc(Br)c2n1` (centres unmarked) [compound 39], the “Remaining Cyclin K (%)” value (Cyclin K [1]) was 4 ± 4%, the “DMax (%)” value (Cyclin K [2]) was >95% and the DC50 (Cyclin K [2]) was 72 nM. The “fold decrease in degradation ability versus pyridine counterpart” value (Cyclin K [2]) was 4–8 fold and the Kd (CDK12) was 17 nM.
In the case of `O=C(NCc1ccc(-c2ccccn2)cc1)c1n[nH]cc1NC(=O)c1c(Cl)cccc1Cl` [compound 40], the “Remaining Cyclin K (%)” value (Cyclin K [1]) is reported as 1 ± 1%, the “DMax (%)” value (Cyclin K [2]) is reported as >95% and the DC50 (Cyclin K [2]) is reported as 21 nM. For the same molecule, the “fold difference (weaker) in CDK12 binding affinity versus compound 36” value (CDK12; 40 vs 36) was 250 fold and the Kd (CDK12) was 1000 nM.
For `O=C(NCc1ccc(-c2ccco2)cc1)c1n[nH]cc1NC(=O)c1c(Cl)cccc1Cl` [compound 42], the “Remaining Cyclin K (%)” value (Cyclin K [1]) was 20 ± 14%, the “DMax (%)” value (Cyclin K [2]) was >95% and the DC50 (Cyclin K [2]) was 168 nM. For the same molecule, the “fold decrease in degradation ability versus pyridine counterpart” value (Cyclin K [2]) was 4–8 fold and the Kd (CDK12) was 1000 nM.
Molecule `OCCC1CCCCN1c1cc(NCc2ccccc2)n2ncc(Br)c2n1` (centres unmarked) [compound 43] has a Kd (CDK12) of 10 nM.
With `O=C(NCc1ccccc1)c1n[nH]cc1NC(=O)c1c(Cl)cccc1Cl` [compound 44] the Kd (CDK12) was 5500 nM.
